Data taken from publication PMC4335020, “Single Oral Dose Pharmacokinetics of Decursin and Decursinol Angelate in Healthy Adult Men and Women” (PLoS ONE, 2015).
Like-named read-outs stand apart in the source and are kept apart here.

Test: Single oral dose human plasma pharmacokinetics of D, DA and DOH after Cogni.Q
Type: in vivo
Text: Ten healthy male and 10 female subjects were recruited by public announcement in Amarillo, TX, from January 2013 to April 2013 (see Fig. 1 CONSORT diagram). The sample size for each gender was chosen without power calculation due to the lack of prior knowledge of PK parameter variance in humans. After receiving informed consent verbally and in writing, the health status of each candidate was confirmed by health questionnaire, plasma biochemistry (hepatic and renal functions), complete blood cell count (CBC), and a physical examination by a participating academic physician. Subjects with diabetes, or pregnant, perinatal and breastfeeding women were excluded. For the 48 hours preceding study visit until the final blood draw, all subjects were instructed to avoid taking any prescription or nonprescription drugs, vitamins, and herbal/dietary supplements. Each subject was compensated for participating in the study per TTUHSC IRB approved rate.
Eligible subjects arrived at our clinical facility at 0700 (7:00 am) on the test day after a fast beginning at 2200 (10:00 pm) the previous night. After a brief review of vital signs, the nurse placed an intravenous (IV) line with saline drip in one arm of each subject. A baseline pre-dose (hour 0) blood sample was drawn through the IV line; after that subjects swallowed four Cogni.Q vegicaps with 240 mL of water at hour 0 under direct supervision. Subjects stayed at the clinical facility in their room for the next 12 hours, returning at 24 and 48 hours. Blood was drawn at baseline (hour 0) and at 0.5, 1, 2, 3, 4, 6, 8, 12, 24 and 48 hours after dosing into Vacutainer Blood Collection Tube (Becton-Dickinson, Franklin Lakes, NJ. Product Number: 367874, Sodium heparin was used as anti-coagulant). Water was allowed as desired except for within the first hour after Cogni.Q consumption. All subjects received standardized meals at post-dose hours 4.5 and 9.5 but no food was allowed for at least the first 4 hours post-dose.
Plasma was prepared by centrifuging the heparinized blood at 1000 g for 15 minutes at room temperature. Urine samples (40mL) were collected within time spans of 0–4, 4–8, 8–12 and 12–24 hours (total volume of urine was recorded). All plasma and urine samples were put on dry ice immediately and then stored at -80°C freezer until analysis.
Plasma samples were extracted with a validated solid supported liquid extraction (SLE) method facilitated with a positive pressure manifold (Biotage, Charlotte, NC). Briefly, 100 μL of plasma sample was spiked with 5 μL of 10 ng/μL prednisolone (IS), diluted with 200 μL of LC-MS grade water, mixed and loaded onto ISOLUTE SLE+ 400 μL Array Well cartridges (Biotage, Charlotte, NC). A pulse of minimum positive pressure was applied to facilitate the samples absorption into the cartridges. After the samples were allowed to absorb for 5 min, the compounds were eluted with 2×500 μL tert-butyl methyl ether. The eluent was dried in a Speedvac and the resulting residue was reconstituted in 50 μL of methanol for UHPLC-MS/MS analysis.
Eight-point calibration curves were constructed for D, DA and DOH, at concentrations of 0.1, 0.5, 1, 5, 10, 20, 50 and 100 μg/L for D and DA, and at concentrations of 1, 5, 10, 50, 100, 200, 500 and 1000 μg/L for DOH, respectively. The linear range was 0.1–100 μg/L (0.3–300 nmol/L), 0.1–100 μg/L (0.3–300 nmol/L) and 1–1000 μg/L (4–4000 nmol/L) for D, DA and DOH, respectively. The inter- and intra-assay CV were lower than 6.5% and the accuracy was between 90–105%. Calibration curve was run for each batch of samples analyzed. The mean calibration curve correlation coefficient (r) for D, DA and DOH was 0.999, 0.999 and 0.998, respectively (data from 7–10 calibration curves). In addition, 70% of the plasma samples were extracted and analyzed twice, the data from two replicate analyses were nearly identical and combined for final data analyses and presentation. […]

## CC1(C)Oc2cc3oc(=O)ccc3cc2C[C@@H]1O [DOH, decursinol]
Both sexes, human, plasma, oral, 4 Cogni.Q vegicaps, n=20 (S1 Table), read-out: Cmax, nM, Grand Mean
  Cmax: 2480 nM
Both sexes, human, plasma, oral, 4 Cogni.Q vegicaps, n=20 (S1 Table), read-out: Tmax, h, Grand Mean
  Tmax: 3.3 h
Both sexes, human, plasma, oral, all subjects, outliers excluded (S1 Table), read-out: Terminal t1/2, h, Grand Mean (converted)
  half-life: 7.4 h
Both sexes, human, plasma, oral, human subjects, read-out: plasma C max, average value
  Cmax: 2500 nM
Both sexes, human, plasma, oral, n=20 (S1 Table), read-out: AUC0-48h, Grand Mean
  AUC(0-t): 27600 nmol·h/L
Both sexes, human, plasma, oral, range over human subjects, read-out: plasma C max, range in human subjects
  Cmax: 1300 to 4000 nM
Both sexes, human, plasma, po, all human subjects n = 20, single oral dose 4 Cogni.Q vegicaps (119 mg D, 77 mg DA), plasma, read-out: Cmax, nmol/L Mean (SD)
  Cmax: 2480 nM
Both sexes, human, plasma, po, all human subjects n = 20, single oral dose Cogni.Q, plasma (Table 2), read-out: AUC0–48h, nmol/L, Mean (SD)
  AUC(0-t): 27600 nmol·h/L
Both sexes, human, twenty healthy subjects, single oral dose Cogni.Q, plasma (abstract), read-out: mean area under the curve (AUC0-48h)
  AUC(0-t): 27600 nmol·h/L
Both sexes, all human subjects n = 20, single oral dose 4 Cogni.Q vegicaps (119 mg D, 77 mg DA), plasma, read-out: Tmax, h, Mean (SD)
  Tmax: 3.3 h
Both sexes, all human subjects, four outlier subjects excluded, single oral dose Cogni.Q, plasma, read-out: Terminal t1/2, h, Mean (SD) (converted)
  half-life: 7.4 h
female, human, plasma, oral, 4 Cogni.Q vegicaps, Women n=10 (S1 Table), read-out: AUC0-48h, Mean, F
  AUC(0-t): 32700 nmol·h/L
female, human, plasma, oral, 4 Cogni.Q vegicaps, Women n=10 (S1 Table), read-out: Cmax, nM, Mean, F
  Cmax: 2610 nM
female, human, plasma, oral, Women n=10 (S1 Table), read-out: Tmax, h, Mean, F
  Tmax: 4.1 h
female, human, plasma, oral, Women, outliers excluded (S1 Table), read-out: Terminal t1/2, h, Mean, F (converted)
  half-life: 8.3 h
female, human, plasma, po, Women N = 10, single oral dose Cogni.Q, plasma, read-out: AUC0–48h, h.nmol/L Mean (SD)
  AUC(0-t): 32700 nmol·h/L
female, human, plasma, po, Women N = 10, single oral dose Cogni.Q, plasma, read-out: Cmax, nmol/L, Mean (SD)
  Cmax: 2610 nM
female, human, plasma, po, Women N = 10, single oral dose Cogni.Q, plasma, read-out: Tmax, h, Mean (SD)
  Tmax: 4.1 h
female, human, plasma, po, Women, outlier subjects excluded, single oral dose Cogni.Q, plasma, read-out: T1/2, h, terminal Mean (SD) (converted)
  half-life: 8.3 h
human, plasma, oral, 4 Cogni.Q vegicaps, subject S1 (115 lb), outlier, excluded from means, read-out: Terminal t1/2, h (converted)
  half-life: 9.9 h
human, plasma, oral, 4 Cogni.Q vegicaps, subject S1 (115 lb), read-out: AUC0-48h
  AUC(0-t): 17600 nmol·h/L
human, plasma, oral, 4 Cogni.Q vegicaps, subject S1 (115 lb), read-out: Cmax
  Cmax: 2380 nM
human, plasma, oral, 4 Cogni.Q vegicaps, subject S1 (115 lb), read-out: Tmax
  Tmax: 3 h
human, plasma, oral, 4 Cogni.Q vegicaps, subject S2 (194 lb), read-out: AUC0-48h
  AUC(0-t): 25000 nmol·h/L
human, plasma, oral, 4 Cogni.Q vegicaps, subject S2 (194 lb), read-out: Cmax
  Cmax: 2390 nM
human, plasma, oral, 4 Cogni.Q vegicaps, subject S2 (194 lb), read-out: Terminal t1/2, h (converted)
  half-life: 9.2 h
human, plasma, oral, 4 Cogni.Q vegicaps, subject S2 (194 lb), read-out: Tmax
  Tmax: 4 h
human, plasma, oral, 4 Cogni.Q vegicaps, subject S3 (170 lb), outlier, excluded from means, read-out: Terminal t1/2, h (converted)
  half-life: 5.2 h
human, plasma, oral, 4 Cogni.Q vegicaps, subject S3 (170 lb), read-out: AUC0-48h
  AUC(0-t): 8310 nmol·h/L
human, plasma, oral, 4 Cogni.Q vegicaps, subject S3 (170 lb), read-out: Cmax
  Cmax: 1560 nM
human, plasma, oral, 4 Cogni.Q vegicaps, subject S3 (170 lb), read-out: Tmax
  Tmax: 6 h
human, plasma, oral, 4 Cogni.Q vegicaps, subject S4 (170 lb), read-out: AUC0-48h
  AUC(0-t): 63700 nmol·h/L
human, plasma, oral, 4 Cogni.Q vegicaps, subject S4 (170 lb), read-out: Cmax
  Cmax: 2680 nM
human, plasma, oral, 4 Cogni.Q vegicaps, subject S4 (170 lb), read-out: Terminal t1/2, h (converted)
  half-life: 11.1 h
human, plasma, oral, 4 Cogni.Q vegicaps, subject S4 (170 lb), read-out: Tmax
  Tmax: 6 h
human, plasma, oral, 4 Cogni.Q vegicaps, subject S5 (161 lb), read-out: AUC0-48h
  AUC(0-t): 19200 nmol·h/L
human, plasma, oral, 4 Cogni.Q vegicaps, subject S5 (161 lb), read-out: Cmax
  Cmax: 1530 nM
human, plasma, oral, 4 Cogni.Q vegicaps, subject S5 (161 lb), read-out: Terminal t1/2, h (converted)
  half-life: 7.7 h
human, plasma, oral, 4 Cogni.Q vegicaps, subject S5 (161 lb), read-out: Tmax
  Tmax: 2 h
human, plasma, oral, 4 Cogni.Q vegicaps, subject S6 (120 lb), read-out: AUC0-48h
  AUC(0-t): 37500 nmol·h/L
human, plasma, oral, 4 Cogni.Q vegicaps, subject S6 (120 lb), read-out: Cmax
  Cmax: 2770 nM
human, plasma, oral, 4 Cogni.Q vegicaps, subject S6 (120 lb), read-out: Terminal t1/2, h (converted)
  half-life: 7.2 h
human, plasma, oral, 4 Cogni.Q vegicaps, subject S6 (120 lb), read-out: Tmax
  Tmax: 4 h
human, plasma, oral, 4 Cogni.Q vegicaps, subject S7 (180 lb), read-out: AUC0-48h
  AUC(0-t): 51800 nmol·h/L
human, plasma, oral, 4 Cogni.Q vegicaps, subject S7 (180 lb), read-out: Cmax
  Cmax: 3970 nM
human, plasma, oral, 4 Cogni.Q vegicaps, subject S7 (180 lb), read-out: Terminal t1/2, h (converted)
  half-life: 6.5 h
human, plasma, oral, 4 Cogni.Q vegicaps, subject S7 (180 lb), read-out: Tmax
  Tmax: 6 h
human, plasma, oral, 4 Cogni.Q vegicaps, subject S8 (160 lb), read-out: AUC0-48h
  AUC(0-t): 30400 nmol·h/L
human, plasma, oral, 4 Cogni.Q vegicaps, subject S8 (160 lb), read-out: Cmax
  Cmax: 2530 nM
human, plasma, oral, 4 Cogni.Q vegicaps, subject S8 (160 lb), read-out: Terminal t1/2, h (converted)
  half-life: 5.5 h
human, plasma, oral, 4 Cogni.Q vegicaps, subject S8 (160 lb), read-out: Tmax
  Tmax: 3 h
human, plasma, oral, 4 Cogni.Q vegicaps, subject S9 (158 lb), read-out: AUC0-48h
  AUC(0-t): 17700 nmol·h/L
human, plasma, oral, 4 Cogni.Q vegicaps, subject S9 (158 lb), read-out: Cmax
  Cmax: 2110 nM
